Results from patent US12227496B2 (BRISTOL-MYERS SQUIBB COMPANY, priority 2019, dated 2025).

These compounds were tested against T1, human FXR (Homo sapiens, UniProt Q96RI1) (assay: transient human FXR/Gal4-luciferase reporter assay). Conditions: Gal4-hFXR LBD fusion, luciferase reporter in HEK293 cells; response relative to 8 μM GW-4064.
T1 construct: expressed in transfected cells; host or cells: HEK293 cells stably carrying a 5xGal4-response-element firefly luciferase reporter, transiently transfected with pcDNA3.1-Gal4-FXR
T1 sequence (Q96RI1 262-486 limits assumed): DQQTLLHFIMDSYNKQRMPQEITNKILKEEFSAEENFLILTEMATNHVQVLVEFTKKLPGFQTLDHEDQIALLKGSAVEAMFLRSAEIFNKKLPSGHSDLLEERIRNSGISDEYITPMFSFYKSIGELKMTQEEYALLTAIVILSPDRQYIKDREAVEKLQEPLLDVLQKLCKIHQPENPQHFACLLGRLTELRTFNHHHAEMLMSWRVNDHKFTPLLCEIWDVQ
Type: cell-based
In short: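 HEK293 cells stably carrying a 5×Gal4-response-element firefly luciferase reporter were transiently transfected with Gal4-hFXR. They were then incubated overnight at 37 °C with compound serial dilutions in medium containing 10% charcoal/dextran-stripped FBS. Luminescence was read after Steady-Glo addition.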

Structure (SMILES)	EC50
CC(C)(C)c1nc(C23CCC(CN(C(=O)C4CCC(F)(F)CC4)c4cccc(-c5cc(C6CC6)on5)c4)(CC2)CC3)no1 [Example 162, N-((4-(5-(tert-butyl)-1,2,4-oxadiazol-3-yl)bicyclo[2.2.2]octan-1-yl)methyl)-N-(3-(5-cyclopropylisoxazol-3-yl)phenyl)-4,4-difluorocyclohexane-1-carboxamide]	41 nM
CC(C)(C)c1nc(C23CCC(CN(C(=O)C4CCC(F)(F)CC4)c4cccc(-c5cc(C6CC6)no5)c4)(CC2)CC3)no1 [Example 148, N-((4-(5-(tert-butyl)-1,2,4-oxadiazol-3-yl)bicyclo[2.2.2]octan-1-yl)methyl)-N-(3-(3-cyclopropylisoxazol-5-yl)phenyl)-4,4-difluorocyclohexane-1-carboxamide]	107 nM
O=C(C1CCC(F)(F)CC1)N(CC12CCC(c3nc(C4CC4)no3)(CC1)CC2)c1cccc(-c2nc(CC3CC3)no2)c1 [Example 43, N-((4-(3-cyclopropyl-1,2,4-oxadiazol-5-yl)bicyclo[2.2.2]octan-1-yl)methyl)-N-(3-(3-(cyclopropylmethyl)-1,2,4-oxadiazol-5-yl)phenyl)-4,4-difluorocyclohexane-1-carboxamide]	379 nM
COc1ccc(-c2cccc(N(CC34CCC(c5nc(C)no5)(CC3)CC4)C(=O)C3CCCCC3)c2)cc1 [Example 76, N-(4′-methoxy-[1,1′-biphenyl]-3-yl)-N-((4-(3-methyl-1,2,4-oxadiazol-5-yl)bicyclo[2.2.2]octan-1-yl)methyl)cyclohexane carboxamide]	387 nM
Cn1nc(C2CC2)cc1C12CCC(CN(C(=O)C3CCOCC3)c3cccc(-c4cc(C5CC5)on4)c3)(CC1)CC2 [Example 132, N-((4-(3-cyclopropyl-1-methyl-1H-pyrazol-5-yl)bicyclo[2.2.2]octan-1-yl)methyl)-N-(3-(5-cyclopropylisoxazol-3-yl)phenyl)tetrahydro-2H-pyran-4-carboxamide]	227 nM
CN1CCC(C(=O)N(CC23CCC(c4nc(C5CC5)no4)(CC2)CC3)c2cccc(-c3cnc(C4CC4)o3)c2)CC1 [Example 24, N-((4-(3-cyclopropyl-1,2,4-oxadiazol-5-yl)bicyclo[2.2.2]octan-1-yl)methyl)-N-(3-(2-cyclopropyloxazol-5-yl)phenyl)-1-methylpiperidine-4-carboxamide]	4800 nM
CCOc1cc(-c2cccc(N(CC34CCC(c5nc(C6CC6)no5)(CC3)CC4)C(=O)C3CCCCC3)c2)ccn1 [Example 78, N-((4-(3-cyclopropyl-1,2,4-oxadiazol-5-yl)bicyclo[2.2.2]octan-1-yl)methyl)-N-(3-(2-ethoxypyridin-4-yl)phenyl)cyclohexane carboxamide]	181 nM
CC(C)(C)c1noc(C23CCC(CN(C(=O)C4CCC(F)(F)CC4)c4cccc(-c5cnn6cc(Cl)cnc56)c4)(CC2)CC3)n1 [Example 141, N-((4-(3-(tert-butyl)-1,2,4-oxadiazol-5-yl)bicyclo[2.2.2]octan-1-yl)methyl)-N-(3-(6-chloropyrazolo[1,5-a]pyrimidin-3-yl)phenyl)-4,4-difluorocyclohexane-1-carboxamide]	549 nM
CCOc1ncc(-c2cccc(N(CC34CCC(c5nc(C)no5)(CC3)CC4)C(=O)C3CCCCC3)c2)o1 [Example 10, N-(3-(2-ethoxyoxazol-5-yl)phenyl)-N-((4-(3-methyl-1,2,4-oxadiazol-5-yl)bicyclo[2.2.2]octan-1-yl)methyl)cyclohexanecarboxamide]	71 nM
CCOc1cc(-c2cccc(N(CC34CCC(c5nc(C6CC6)no5)(CC3)CC4)C(=O)C3CCC(F)(F)CC3)c2)ccn1 [Example 79, N-((4-(3-cyclopropyl-1,2,4-oxadiazol-5-yl)bicyclo[2.2.2]octan-1-yl)methyl)-N-(3-(2-ethoxypyridin-4-yl)phenyl)-4,4-difluorocyclohexane-1-carboxamide]	408 nM
